Data from ChEMBL document CHEMBL4651402, “Screening of ~5500 FDA-approved drugs and clinical candidates for anti-SARS-CoV-2 activity” (2021).

Test system: SARS-CoV-2
Assay: microbe, parasite or virus in culture
Conditions: Severe acute respiratory syndrome coronavirus 2, Vero C1008, 48 h

SMILES | IC50 | IC50 (read-out: pIC50 (converted))
CCSc1ccc2c(c1)N(CCCN1CCN(C)CC1)c1ccccc1S2 [THIETHYLPERAZINE] | > 20 µM | > 20 µM
CCOC(=O)[C@H](CCc1ccccc1)N[C@@H](C)C(=O)N1Cc2cc(OC)c(OC)cc2C[C@H]1C(=O)O [MOEXIPRIL] | > 20 µM | > 20 µM
CN1CCC(OC(c2ccccc2)c2ccccc2)CC1 | > 20 µM | > 20 µM
O=c1c(O)c(-c2ccc(O)cc2)oc2cc(O)cc(O)c12 [KAEMPFEROL] | > 20 µM | > 20 µM
N#CN=C(NCCCCCCOc1ccc(Cl)cc1)Nc1ccncc1 [CHS-828] | > 20 µM | > 20 µM
CC(=O)OCC(=O)[C@H]1CC[C@H]2[C@@H]3CC=C4C[C@@H](O)CC[C@]4(C)[C@H]3CC[C@]12C | > 20 µM | > 20 µM
O=P(O)(O)OC[C@H](O)CO | > 20 µM | > 20 µM
O=C(CO)[C@@H](O)[C@H](O)[C@H](O)CO [FRUCTOSE] | > 20 µM | > 20 µM
O=C(O)COC(=O)Cc1ccccc1Nc1c(Cl)cccc1Cl [ACECLOFENAC] | > 20 µM | > 20 µM
CCOCC(O)COc1ccc(NC(=O)CC[S+](C)C)cc1 (stereo not given) | > 20 µM | > 20 µM
COC1CCC2(C)C(=CCC3C2CCC2(C)C(C(C)=O)CCC32)C1 (stereo not given) | > 20 µM | > 20 µM
Cc1c(N(C)C)c(=O)n(-c2ccccc2)n1C [AMINOPYRINE] | > 20 µM | > 20 µM
COc1ccc([C@@H]2CNC(=O)[C@@H](Cc3cccc(C)c3)C2)cc1OC1CCCC1 | > 20 µM | > 20 µM
COc1ccc(C(=O)c2ccccc2)c(O)c1 [OXYBENZONE] | > 20 µM | > 20 µM
C[N+]1(C)CCC(OC(=O)C(O)(c2ccccc2)C2CCCC2)C1 (stereo not given) [GLYCOPYRRONIUM] | > 20 µM | > 20 µM
COc1cc2ncnc(Nc3ccc(F)c(Cl)c3)c2cc1NC(=O)/C=C/CN1CCCCC1 [DACOMITINIB ANHYDROUS] | > 20 µM | > 20 µM
C=CCN1CC[C@]23CCCCC2[C@H]1Cc1ccc(O)cc13 (stereo not given in full) | > 20 µM | > 20 µM
O=C(O)c1cc(=O)[nH]c(=O)[nH]1 [OROTIC ACID] | > 20 µM | > 20 µM
CCN1CCC(=C(c2ccccc2)c2ccccc2)C1 [PRIDEFINE] | > 20 µM | > 20 µM
C[C@H]1O[C@@H](O[C@H]2[C@@H](O)C[C@H](O[C@H]3[C@@H](O)C[C@H](O[C@H]4CC[C@@]5(C)[C@H](CC[C@@H]6[C@@H]5C[C@@H](O)[C@]5(C)[C@@H](C7=CC(=O)OC7)CC[C@]65O)C4)O[C@@H]3C)O[C@@H]2C)C[C@H](O)[C@@H]1O [DIGOXIN] | > 20 µM | > 20 µM
Cc1cc(=O)oc2c(O)c(O)ccc12 [4-METHYLDAPHNETIN] | > 20 µM | > 20 µM
CCN(CC)CCOC(=O)C1(c2ccc([N+](=O)[O-])cc2)CCCC1 | > 20 µM | > 20 µM
Cc1cccc(C)c1NC(=O)CN(CC(=O)O)CC(=O)O [LIDOFENIN] | > 20 µM | > 20 µM
CCN(CCNC(=O)Nc1ccccc1Br)c1cccc(C)c1 | > 20 µM | > 20 µM
Cc1cn(Cc2ccc(Cl)cc2Cl)c2c(/C=C/C(=O)NS(=O)(=O)c3cc(Cl)c(Cl)s3)cc(F)cc12 | > 20 µM | > 20 µM

SMILES | IC50 | IC50 (read-out: pIC50 (converted))
NS(=O)(=O)NCc1csc2ccccc12 | > 20 µM | > 20 µM
C=CCOc1ccccc1OCC(O)CNC(C)C (stereo not given) [OXPRENOLOL] | > 20 µM | > 20 µM
CN1CC(O)C2=CC(=O)C(=O)C=C21 (stereo not given) | > 20 µM | > 20 µM
CCC(N)Cc1c[nH]c2ccccc12 (stereo not given) [ETRYPTAMINE] | > 20 µM | > 20 µM
COc1cc(N2CCC(N(C)C)CC2)ccc1Nc1ncc(Cl)c(Nc2ccccc2P(C)(C)=O)n1 | > 20 µM | > 20 µM
CN(C)[C@@H]1C(O)=C(C(N)=O)C(=O)[C@@]2(O)C(O)=C3C(=O)c4c(O)cccc4[C@@](C)(O)[C@H]3[C@H](O)[C@@H]12 [OXYTETRACYCLINE] | > 20 µM | > 20 µM
COc1ccc([C@@H]2CC(=O)c3c(O)cc(O)cc3O2)cc1O [HESPERETIN] | > 20 µM | > 20 µM
CCn1cc(C(=O)O)c(=O)c2cc(F)c(N3CCN(C)CC3)cc21 [PEFLOXACIN] | > 20 µM | > 20 µM
O=C1c2ccccc2-c2c1c1ccccc1c(=O)n2CCNCCO | > 20 µM | > 20 µM
COc1ccc(C(=O)OC2CCC3(C)C4CCC5[C@]6(O)[C@@H](O)C(O)[C@H]7C(CN8CC(C)CC[C@H]8[C@@]7(C)O)[C@@H]6C[C@@]53O[C@]24O)cc1OC (stereo not given in full) | > 20 µM | > 20 µM
CC12CCC(O)CC1=CCC1C2CCC2(C)C(O)CCC12 (stereo not given) | > 20 µM | > 20 µM
Cc1nc(N)nc(N)c1-c1ccc(Cl)c(Cl)c1 [METOPRINE] | > 20 µM | > 20 µM
Nc1nc(=O)[nH]cc1F [FLUCYTOSINE] | > 20 µM | > 20 µM
CN(CCOc1ccc(CC2SC(=O)NC2=O)cc1)c1ccccn1 (stereo not given) [ROSIGLITAZONE] | > 20 µM | > 20 µM
CCC(=O)[C@@]1(C)[C@H](C)C[C@H]2[C@@H]3CCC4=CC(=O)C=C[C@]4(C)[C@H]3[C@@H](O)C[C@@]21C [RIMEXOLONE] | > 20 µM | > 20 µM
CCOC(=O)[C@H](CCc1ccccc1)N[C@H]1CCc2ccccc2N(CC(=O)O)C1=O [BENAZEPRIL] | > 20 µM | > 20 µM
CC(=O)CC(c1ccc([N+](=O)[O-])cc1)c1c(O)c2ccccc2oc1=O (stereo not given) [ACENOCOUMAROL] | > 20 µM | > 20 µM
O=C(O)c1cc(=O)c2c(OCC(O)COc3cccc4oc(C(=O)O)cc(=O)c34)cccc2o1 [CROMOLYN] | > 20 µM | > 20 µM
CC(C)CCCC(C)C1CCC2C3C(=O)C=C4CC(O)CCC4(C)C3CCC12C (stereo not given) | > 20 µM | > 20 µM
CCN1C(=CC=CC=Cc2sc3ccccc3[n+]2CC)Sc2ccccc21 [DITHIAZANINE] | > 20 µM | > 20 µM
CCOC(=O)C1(c2ccccc2)CCN(CCC(C#N)(c2ccccc2)c2ccccc2)CC1 [DIPHENOXYLATE] | > 20 µM | > 20 µM
CO/N=C/C1=CCCN(C)C1 [MILAMELINE] | > 20 µM | > 20 µM
N=C(N)c1ccc(CNC(=O)[C@@H]2CCN2C(=O)[C@H](NCC(=O)O)C2CCCCC2)cc1 | > 20 µM | > 20 µM
CN1CCC(O)(c2ccc(F)cc2)C(C(=O)c2ccc(F)cc2)C1 (stereo not given) [FLAZALONE] | > 20 µM | > 20 µM
CC(CNC1CCCCC1)OC(=O)c1ccccc1 (stereo not given) [HEXYLCAINE] | > 20 µM | > 20 µM

SMILES | IC50 | IC50 (read-out: pIC50 (converted))
O=C1C=CC(=O)c2c(O)cccc21 [JUGLONE] | > 20 µM | > 20 µM
CCOc1ccccc1O[C@H](c1ccccc1)[C@H]1CNCCO1 | > 20 µM | > 20 µM
CN1[C@@H]2CC(=O)C[C@H]1[C@H](O)C2 | > 20 µM | > 20 µM
N[C@@H](CCC(=O)N[C@@H](CS)C(=O)NCC(=O)O)C(=O)O [GLUTATHIONE] | > 20 µM | > 20 µM
Cn1cnc([N+](=O)[O-])c1Sc1nc(N)nc2[nH]cnc12 [THIAMIPRINE] | > 20 µM | > 20 µM
COc1ccc(C(Cl)=C(c2ccc(OC)cc2)c2ccc(OC)cc2)cc1 [CHLOROTRIANISENE] | > 20 µM | > 20 µM
CC12CC3CC(C)(C1)CC(N)(C3)C2 [MEMANTINE] | > 20 µM | > 20 µM
COc1ccc(C(CN(C)C)C2(O)CCCCC2)cc1 (stereo not given) [VENLAFAXINE] | > 20 µM | > 20 µM
CN(C)CCOC(c1ccccc1)c1ccnn1C (stereo not given) [CIZOLIRTINE] | > 20 µM | > 20 µM
CC(=O)OCC(=O)[C@@]1(OC(C)=O)[C@@H](C)C[C@H]2[C@@H]3C[C@H](F)C4=CC(=O)C=C[C@]4(C)[C@@]3(F)[C@@H](O)C[C@@]21C [DIFLORASONE DIACETATE] | > 20 µM | > 20 µM
CC(CN1c2ccccc2Sc2ccc(S(=O)(=O)N(C)C)cc21)N(C)C (stereo not given) [FONAZINE] | > 20 µM | > 20 µM
c1ccc2nc(N3CCNCC3)ccc2c1 [QUIPAZINE] | > 20 µM | > 20 µM
CC(=O)OC1C=C2CCC3C(CCC4(C)C(OC(C)=O)CCC34)C2(C)CC1 (stereo not given) | > 20 µM | > 20 µM
CC[C@H](OC(C)=O)C(C[C@@H](C)N(C)C)(c1ccccc1)c1ccccc1 [BETACETYLMETHADOL] | > 20 µM | > 20 µM
c1ccc2[nH]c(-c3cscn3)nc2c1 [THIABENDAZOLE] | > 20 µM | > 20 µM
N[C@H](Cc1c[nH]cn1)C(=O)O [D-HISTIDINE] | > 20 µM | > 20 µM
COCc1c(C(C)C)nc(C(C)C)c(/C=C/[C@@H](O)C[C@@H](O)CC(=O)O)c1-c1ccc(F)cc1 [CERIVASTATIN] | > 20 µM | > 20 µM
CC(=O)N[C@@H](CC(C)C)C(=O)O | > 20 µM | > 20 µM
C#C[C@]1(O)C=C[C@H]2[C@@H]3CCC4=CC(=O)CC[C@@H]4[C@H]3CC[C@@]21CC [GESTODENE] | > 20 µM | > 20 µM
O=C1N(c2ccccc2)c2ccccc2C1(Cc1ccncc1)Cc1ccncc1 [LINOPIRDINE] | > 20 µM | > 20 µM
CCCN(CCC)c1cc(C)nc2c(-c3cnc(N(C)C)cc3C)c(C)nn12 | > 20 µM | > 20 µM
O[C@H]1CC[C@H](Nc2ncc3nc(Nc4c(F)cc(F)cc4F)n([C@H]4CCOC4)c3n2)CC1 [TANZISERTIB] | > 20 µM | > 20 µM
O=[N+]([O-])c1ccc(O)c([N+](=O)[O-])c1 [2,4-DINITROPHENOL] | > 20 µM | > 20 µM
CNC[C@H](O)[C@@H](O)[C@H](O)[C@H](O)CO [MEGLUMINE] | > 20 µM | > 20 µM
C/C=C1/C[C@@H](C)[C@](O)(CO)C(=O)OCC2=CCN3CC[C@@H](OC1=O)[C@@H]23 | > 20 µM | > 20 µM
